Biological target: T1, rat CB1 receptor (Rattus norvegicus, UniProt P20272)
T1 construct: contains an open reading frame of 1419 base pairs which corresponds to a protein of 473 amino acids; expressed in transfected cells; host or cells: CHOluc9 cells (CHO luciferase reporter line), stably transfected with pRc/CMV-based plasmid CMV-RH
Assay: CB1 luciferase reporter gene test
Type: cell-based
Details: CHOluc9 cells stably transfected with rat CB1, forskolin-stimulated luciferase; read-out: IC50 (nmol/l), activity in the rat CB1 receptor luciferase receptor gene test
Description: CB1—Luciferase Reporter Gene Test
1. Cloning of the Rat Cannabinoid Receptor CB1
Total RNA from rat brain (the tissue was taken from freshly killed animals and shock-frozen in liquid nitrogen) was isolated by acidic guanidinium thiocyanate/phenol/chloroform extraction (J. Biol. Chem. 1979, 18, 5294) and converted into cDNA by means of reverse transcriptase and random primers (in each case from Invitrogen). […] This PCR product was subcloned into the TA cloning vector (Invitrogen) and the nucleotide sequence of the insert was determined by the dideoxynucleotide chain termination reaction using T7DNA polymerase (Sequenase, USA/Amersham). The insert has a length of 1477 base pairs and contains an open reading frame of 1419 base pairs which corresponds to a protein of 473 amino acids. The number of base pairs, the position of the open reading frame and the number of amino acids agree with the published sequence. […]

T1 sequence (P20272 whole entry): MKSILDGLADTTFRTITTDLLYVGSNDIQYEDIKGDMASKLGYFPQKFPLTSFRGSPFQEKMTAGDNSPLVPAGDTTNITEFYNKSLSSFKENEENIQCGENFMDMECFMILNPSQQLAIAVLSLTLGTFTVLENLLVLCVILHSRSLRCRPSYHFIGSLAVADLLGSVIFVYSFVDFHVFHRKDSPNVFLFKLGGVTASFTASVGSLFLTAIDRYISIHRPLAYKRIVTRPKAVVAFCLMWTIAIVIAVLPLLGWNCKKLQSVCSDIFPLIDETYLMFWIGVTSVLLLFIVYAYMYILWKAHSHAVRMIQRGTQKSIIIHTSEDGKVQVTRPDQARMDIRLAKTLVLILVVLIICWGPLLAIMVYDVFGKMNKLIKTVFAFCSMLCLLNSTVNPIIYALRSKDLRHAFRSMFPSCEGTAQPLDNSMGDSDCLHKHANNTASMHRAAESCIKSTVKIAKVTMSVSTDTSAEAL

Question: For `O=S(=O)(CCCC(F)(F)F)Oc1cccc(Oc2cccc3cc(CO)oc23)c1` [Example 1, 2-Hydroxymethyl-7-[3-(4,4,4-trifluorobutyl-1-sulphonyloxy)phenyl-1-oxy]-benzofuran], which IC50 is on record?
Answer: The IC50 was 0.55 nmol/L.
